According to patent publication US20030105034A1, “Pyridine carboxy derivatives and an aminosugar” (Astion Deveopment A/S, priority 2001, published 2003):
“Also recorded” adds a separate entry of the source. Marks after values point to notes of the source that are not given here.

Assays:
[1] = system: tetradecanoyl phorbol acetate (TPA) induced ear inflammation; test: TPA induced ear inflammation test in the mouse, Compound 122 compared to its components (Example 241); type: in vivo; settings: for Inhibition of ear swelling (%): versus vehicle group A, 3 h after TPA; for inhibition of ear swelling, result in words: Compound 122 7.0 mg, niacinamide 3.67 mg, N-acetylglucosamine 3.33 mg per application
From the text: (§1) The objective of this study is to assess the effect of Compound 122 as compared to its components in the tetradecanoyl phorbol acetate (TPA) induced ear inflammation test in the mouse, a commonly employed method for screening and evaluation of antiinflammatory drugs. Locoid® cutaneous solution (0.1% hydrocortisone 17-butyrate) is used as a positive control.
The test articles are the complex of the invention prepared according to example 118 (Compound 122 in the following) and its components niacinamide and N-acetylglucosamine, all obtained from Astion A/S, Denmark.
The study is performed in female SPF NMRI mice of the stock Bom:NMRI from M & B A/S, Denmark. At start of the acclimatisation period the mice is in the weight range of 18-20 g. An acclimatisation period of 7 days is allowed.
On day 0 the test substances are applied in 20 μl volumes to the inner surface of the right ear 20 minutes before and again 20 minutes after TPA treatment. All groups are treated with 20 μl acetone on the left ear and with 20 μl TPA, 400 μg/ml, on the right ear.
Three hours after the TPA application the mice are sacrificed, the ears cut off and weighed.
The amount of niacinamide and N-acetylglucosamine administered to groups C and D corresponds exactly to the amount of the two substances present in Compound 122 administered to group B.
(§2) Mean weights and standard deviations are calculated. Percent inhibition of the oedema compared with group A is calculated for the groups B-E. Weights of the left ears are used to assess the comparability of the groups and to calculate differences in weight between left and right ear.
Ear swelling is determined as the difference between the weight of right and left ear. The following inhibition of ear swelling is observed in groups B-E: […]

[2] = system: tetradecanoyl phorbol acetate (TPA) induced ear inflammation; test: TPA induced ear inflammation test in the mouse, two doses of two complexes (Example 239); type: in vivo; settings: Locoid solution 0.1%, 0.02 mg per application; positive control; ears weighed 3 h after TPA
From the text: as §1, with “two doses of two chemical complexes of the invention topically administered” for “Compound 122 as compared to its components”
At start of the acclimatisation period the mice is in the weight range of 18-20 g. An acclimatisation period of 7 days is allowed.
On the day of arrival the animals is randomly allocated to 7 groups, each of 9 mice.
The test substances are applied in 20 μl volumes to the inner surface of the right ear on day 0. 20 minutes before and again 20 minutes after TPA treatment. All groups is treated with 20 μl acetone on the left ear and with 20 μl TPA, 400 μg/ml, on the right ear.
as §2, with “Three hours after the TPA application the mice are sacrificed, the ears cut off and weighed. Mean” for “Mean”, “group 1” for “group A”, “groups 2-7.” for “groups B-E.”, “ears is” for “ears are”

SMILES	Inhibition of ear swelling (%) ([1]; 0.02 mg per application, group E, positive control)	inhibition of ear swelling [2]	Inhibition of ear swelling (%) ([1]; 3.33 mg per application, group D)	inhibition of ear swelling, result in words [1]	Inhibition of ear swelling (%) ([1]; 3.67 mg per application, group C)
CCCC(=O)O[C@]1(C(=O)CO)CC[C@H]2[C@@H]3CCC4=CC(=O)CC[C@]4(C)[C@H]3[C@@H](O)C[C@@]21C [Hydrocortisone 17-butyrate, hydrocortisone 17-butyrate]	89*** %	90%			
CC(=O)N[C@H]1C(O)O[C@H](CO)[C@@H](O)[C@@H]1O (stereo partly drawn) [N-acetylglucosamine]			31* %	only displayed a modest inhibition; also recorded: showed much lesser inhibition of ear swelling	
NC(=O)c1cccnc1 [Niacinamide]				only displayed a modest inhibition; also recorded: showed much lesser inhibition of ear swelling	31** %
